Assay results published in PMC4577729, “7-(Pyrazol-4-yl)-3H-imidazo[4,5-b]pyridine-based derivatives for kinase inhibition: Co-crystallisation studies with Aurora-A reveal distinct differences in the orientation of the pyrazole N1-substituent” (Bioorganic & Medicinal Chemistry Letters, 2015).
“And” between values parts separate entries of the source, which are not always exact repeats. Equal values may be shown once.

Legend:
Aurora A = molecular target: T1, Aurora A (Homo sapiens, UniProt O14965); assay: Aurora-A microfluidic kinase assay; type: biochemical; settings: for IC50: biochemical, mean of two determinations or mean ±SD for n > 2; for fold more potent on Aurora-A relative to Aurora-B: ratio of biochemical IC50s
T1 sequence (O14965 1-403): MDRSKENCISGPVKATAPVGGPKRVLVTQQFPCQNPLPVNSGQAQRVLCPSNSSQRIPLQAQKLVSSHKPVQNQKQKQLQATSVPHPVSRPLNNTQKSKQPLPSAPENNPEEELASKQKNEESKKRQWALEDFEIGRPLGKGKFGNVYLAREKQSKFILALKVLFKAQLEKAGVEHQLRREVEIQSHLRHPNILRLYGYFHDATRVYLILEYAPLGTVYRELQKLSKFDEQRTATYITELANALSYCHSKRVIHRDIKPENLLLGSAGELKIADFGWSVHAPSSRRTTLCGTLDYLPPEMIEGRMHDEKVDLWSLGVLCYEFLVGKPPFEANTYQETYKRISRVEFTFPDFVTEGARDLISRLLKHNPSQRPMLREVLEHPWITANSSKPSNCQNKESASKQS
Source text: (§1) As part of our medicinal chemistry programme to discover selective inhibitors of Aurora-A,[12] we introduced the 1-benzyl-1H-pyrazol-4-yl moiety at C7 of the imidazo[4,5-b]pyridine scaffold to provide 7a (Table 1). We previously reported 1,3-dimethyl-1H-pyrazol-4-yl as a preferred substituent at the C2 position of the imidazo[4,5-b]pyridine scaffold[11] and this moiety was therefore incorporated into the design of 7a and analogues presented in this study. […] This in vitro profile prompted us to investigate this C7-pyrazole substituted imidazo[4,5-b]pyridine subseries in more detail. Firstly, we attempted to increase biochemical potency against Aurora-A, and also to improve microsomal stability.
(§2) [17] Aurora-A and Aurora-B IC50 values were determined by using a microfluidic assay which monitors the separation of a phosphorylated product from its substrate, as described in Ref. [12].

Aurora B = Aurora B (Homo sapiens, UniProt Q96GD4); assay: Aurora-B microfluidic kinase assay; settings: biochemical; mean of two determinations or mean ±SD for n > 2
Chain of Aurora B (Q96GD4 whole entry): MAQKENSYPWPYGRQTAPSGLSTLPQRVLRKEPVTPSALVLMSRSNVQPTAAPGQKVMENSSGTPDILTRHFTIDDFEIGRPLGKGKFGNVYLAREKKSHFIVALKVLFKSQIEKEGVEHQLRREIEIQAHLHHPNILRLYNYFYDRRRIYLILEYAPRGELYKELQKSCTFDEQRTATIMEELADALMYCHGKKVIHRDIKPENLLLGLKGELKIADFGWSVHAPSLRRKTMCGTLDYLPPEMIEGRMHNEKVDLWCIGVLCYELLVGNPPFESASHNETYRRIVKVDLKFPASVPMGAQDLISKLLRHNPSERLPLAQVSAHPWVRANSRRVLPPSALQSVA
Source text: as §1, §2

[1] = Mouse liver microsomal stability; type: in vitro ADME; settings: percentage of compound metabolised after a 30 min incubation, mouse liver microsomes
Description: (§3) [18] MLM and HLM microsomal stabilities were determined as described in Ref. [12].

[2] = Human liver microsomal stability; type: in vitro ADME; settings: percentage of compound metabolised after a 30 min incubation, human liver microsomes
Description: as §3

[3] = Protein binding in microsomal incubations (MLM); type: in vitro ADME, mouse
Description: (§4) For a better understanding of the microsomal stability data, the protein binding for 7a, 7d and 7e in microsomal incubations was measured. The percentage of 7a unbound in MLM and HLM was determined as 6.71 and 4.89, respectively. Compounds 7d and 7e were more highly bound: for 7d the percentage unbound was 0.50 in both MLM and HLM and for 7e was 0.16 and 0.10, respectively. […] The potent cell-based activity prompted us to investigate kinome selectivity profiles for this class of compound by screening 7a and 7d in a 102-kinase panel at a concentration of 1 μM.[20] […] The Gini coefficient for compound 3 was reported as 0.719,[12] and the corresponding value for compound 1 is 0.560. To understand the potential for further improvement, we obtained the crystal structure of 7a bound to Aurora-A[22] (Fig. 3, Table S3, Supplementary data). […] Similar to crystal structures of previous compounds 1, 15 and 16 (Figs. 1 and 2; compounds 51 and 40c in Ref. [10], and compound 21a in Ref. [11], respectively) the N-benzyl substituent on the C7-pyrazole is oriented towards the P-loop, making Van der Waals contacts with Val147 and Gly142 (Fig. 3).

[4] = Protein binding in microsomal incubations (HLM); type: in vitro ADME, human
Description: as §4

| Structure (SMILES) | IC50 (Aurora A) [nM] | fold more potent on Aurora-A relative to Aurora-B (Aurora A) [fold] | IC50 (Aurora B) [nM] | MLM % met/30 min [1] | HLM % met/30 min [2] | percentage unbound in MLM [3] [%] | percentage unbound in HLM [4] [%] |
| --- | --- | --- | --- | --- | --- | --- | --- |
| Cc1nn(C)cc1-c1nc2c(-c3cnn(Cc4cccc(C(=O)N5CCN(C)CC5)c4)c3)c(Cl)cnc2[nH]1 [Compound 14b] | 46 | 5 | 235 | 97% | 87% |  |  |
| Cc1nn(C)cc1-c1nc2c(-c3cnn(Cc4cccc(C(=O)N(C)C)c4)c3)c(Cl)cnc2[nH]1 [Compound 14a] | 36 | 8 | 296 | 72/72% | 72% and 72/72% |  |  |
| Cc1nn(C)cc1-c1nc2c(-c3cnn(-c4ccc(F)cc4)c3)c(Cl)cnc2[nH]1 [Compound 7e] | > 10000 |  | > 10000 | 31% | 20% | 0.16 | 0.10 |
| Cc1nn(C)cc1-c1nc2c(-c3cnn(Cc4ccccc4C(=O)N4CCN(C)CC4)c3)c(Cl)cnc2[nH]1 [Compound 14c] | 126 |  | 354 | 98% | 82% |  |  |
